Results taken from patent publication US10105357B2, “Indication of antibiotic drugs for preparation of cancer inhibition pharmaceutical composition” (LAUNX BIOMEDICAL CO., LTD., priority 2014, dated 2018).
Where two headings read alike, the source gives them in different places.

Legend:
[1] = tested on: MKN-45 (Gastric Adenocarcinoma); assay: Cell viability analysis, gastric cancer MKN-45; format: cell-based, human; conditions: for viability at 10 µM: Homo sapiens, MKN-45, 72 h
[2] = tested on: HCT116 (p53+) (Colorectal Carcinoma)
[3] = tested on: cancer cell lines; assay: Cell viability analysis (WST-1) on cancer cell lines; format: cell-based, human; conditions: drug 10 μM, 72 hours, WST-1; Table 3
[4] = tested on: HeLa (Cervix Adenocarcinoma); assay: Cell viability analysis, cervical cancer HeLa; format: cell-based, human; conditions: Homo sapiens, HeLa, 72 h, HeLa
[5] = tested on: MCF7 (Mammary Gland, Adenocarcinoma); assay: Cell viability analysis, breast cancer MCF7; format: cell-based, human; conditions: for viability at 10 µM: Homo sapiens, MCF7, 72 h
[6] = tested on: Hep3B (hepatocellular carcinoma); assay: Cell viability analysis, hepatic cancer Hep3B; format: cell-based, human; conditions: Hep3B, repeated experiment
[7] = tested on: SAS (Tongue squamous cell carcinoma); assay: Cell viability analysis, tongue cancer SAS; format: cell-based, human; conditions: SAS, repeated experiment
[8] = tested on: AGS (Gastric Adenocarcinoma); assay: Cell viability analysis, gastric cancer AGS; format: cell-based, human; conditions: for viability at 10 µM: Homo sapiens, 72 h
[9] = tested on: HI650 (Lung Adenocarcinoma); assay: Cell viability analysis, lung cancer HI650; format: cell-based, human; conditions: Homo sapiens, NCI-H1650, 72 h
[10] = tested on: PC3 (p53−) (Prostate Adenocarcinoma); assay: Cell viability analysis, prostate cancer PC3; format: cell-based, human; conditions: for viability at 10 µM: Homo sapiens, 72 h
[11] = tested on: A375 (Amelanotic Melanoma); assay: Cell viability analysis, skin cancer A375; format: cell-based, human; conditions: Homo sapiens, A-375, 72 h
[12] = tested on: BCC (basal cell carcinoma); assay: Cell viability analysis, skin cancer BCC; format: cell-based, human; conditions: BCC, repeated experiment
[13] = tested on: TSGH-8301 (Urinary Bladder Carcinoma); assay: Cell viability analysis, bladder cancer TSGH-8301; format: cell-based, human; conditions: for viability at 10 µM: Homo sapiens, 72 h
[14] = tested on: HL-60 (Acute Promyelocytic Leukemia); assay: Cell viability analysis, leukemia HL-60; format: cell-based, human; conditions: Homo sapiens, HL-60, 72 h, drug 10 μM, 72 hours, WST-1, OD450 nm; read-out: cell viability (survival rate), HL-60
[15] = tested on: NIH: OVCAR-3; assay: Cell viability analysis, ovarian cancer NIH: OVCAR-3; format: cell-based, human; conditions: NIH-OVCAR-3, repeated experiment
[16] = tested on: A549 (Lung Adenocarcinoma); assay: Cell viability analysis, lung cancer A549; format: cell-based, human; conditions: Homo sapiens, A549, 72 h
[17] = tested on: HepG2 (Hepatocellular Carcinoma); assay: Cell viability analysis, hepatic cancer HepG2; format: cell-based, human; conditions: for viability at 10 µM: Homo sapiens, HepG2, 72 h
[18] = tested on: MDA-MB-231 (Mammary Gland, Adenocarcinoma); assay: Cell viability analysis, breast cancer MDA-MB-231; format: cell-based, human; conditions: MDA-MB231, repeated experiment
[19] = tested on: LoVo (Colorectal Adenocarcinoma); assay: Cell viability analysis, colon cancer LoVo; format: cell-based, human; conditions: LoVo; for viability at 10 µM: Homo sapiens, 72 h
[20] = tested on: AsPC-1; assay: Cell viability analysis, pancreatic cancer AsPC-1; format: cell-based, human; conditions: Homo sapiens, ASPC1, 72 h; AsPC-1; repeated experiment; read-out: The results of antibiotic drug inhibiting cancer cell lines (cell viability analysis), AsPC-1
[21] = tested on: 786-O (Renal adenocarcinoma); assay: Cell viability analysis, renal cancer 786-O; format: cell-based, human; conditions: 786-O, repeated experiment
[22] = tested on: C-33A (Cervical carcinoma); assay: Cell viability analysis, cervical cancer C-33A; format: cell-based, human; conditions: C-33A, repeated experiment
[23] = tested on: TOV-21G; assay: Cell viability analysis, ovarian cancer TOV-21G; format: cell-based, human; conditions: TOV-21G, repeated experiment
[24] = tested on: T24; assay: Cell viability analysis, bladder cancer T24; format: cell-based, human; conditions: T24, repeated experiment
[25] = tested on: U-2OS; assay: Cell viability analysis, osteosarcoma U-2OS; format: cell-based, human; conditions: U2OS; repeated experiment

CC(C)CN(C[C@@H](O)[C@H](Cc1ccccc1)NC(=O)O[C@H]1CCOC1)S(=O)(=O)c1ccc(N)cc1 [Amprenavir (Agenerase), Amprenavir]
viability at 10 µM ([1]; MKN-45, repeated experiment, read-out: The results of antibiotic drug inhibiting cancer cell lines (cell viability analysis), MKN-45): 103% | viability at 10 µM ([1]; drug 10 μM, 72 hours, WST-1, OD450 nm, read-out: cell viability (survival rate), MKN-45): 52.1% | viability [2]: 94.5% | inhibition effect on different cancer cell lines [3]: significant inhibition effect | viability at 10 µM ([4]; repeated experiment, read-out: The results of antibiotic drug inhibiting cancer cell lines (cell viability analysis), HeLa): 67.9% | viability at 10 µM ([4]; drug 10 μM, 72 hours, WST-1, OD450 nm, read-out: cell viability (survival rate), HeLa): 67.5% | viability at 10 µM ([5]; MCF-7, repeated experiment, read-out: The results of antibiotic drug inhibiting cancer cell lines (cell viability analysis), MCF-7): 68.3% | viability at 10 µM ([5]; drug 10 μM, 72 hours, WST-1, OD450 nm, read-out: cell viability (survival rate), MCF7): 37% | viability at 10 µM ([6]; Homo sapiens, 72 h, read-out: The results of antibiotic drug inhibiting cancer cell lines (cell viability analysis), Hep3B): 95.2% | viability at 10 µM ([7]; Homo sapiens, 72 h, read-out: The results of antibiotic drug inhibiting cancer cell lines (cell viability analysis), SAS): 83.3% | viability at 10 µM ([8]; AGS, repeated experiment, read-out: The results of antibiotic drug inhibiting cancer cell lines (cell viability analysis), AGS): 98.6% | viability at 10 µM ([8]; drug 10 μM, 72 hours, WST-1, OD450 nm, read-out: cell viability (survival rate), AGS): 58.8% | viability at 10 µM ([9]; H1650, repeated experiment, read-out: The results of antibiotic drug inhibiting cancer cell lines (cell viability analysis), H1650): 88.1% | viability at 10 µM ([9]; drug 10 μM, 72 hours, WST-1, OD450 nm, read-out: cell viability (survival rate), H1650): 69.5% | viability at 10 µM ([10]; PC-3, repeated experiment, read-out: The results of antibiotic drug inhibiting cancer cell lines (cell viability analysis), PC-3): 87.4% | viability at 10 µM ([10]; drug 10 μM, 72 hours, WST-1, OD450 nm, read-out: cell viability (survival rate), PC3): 80.4% | viability at 10 µM ([11]; A375, repeated experiment, read-out: The results of antibiotic drug inhibiting cancer cell lines (cell viability analysis), A375): 88.1% | viability at 10 µM ([11]; drug 10 μM, 72 hours, WST-1, OD450 nm, read-out: cell viability (survival rate), A375): 77.6% | viability at 10 µM ([12]; Homo sapiens, 72 h, read-out: The results of antibiotic drug inhibiting cancer cell lines (cell viability analysis), BCC): 74.5% | viability at 10 µM ([13]; TSGH-8301, repeated experiment, read-out: The results of antibiotic drug inhibiting cancer cell lines (cell viability analysis), TSGH-8301): 96.1% | viability at 10 µM ([13]; drug 10 μM, 72 hours, WST-1, OD450 nm, read-out: cell viability (survival rate), TSGH): 57% | viability at 10 µM [14]: 111% | viability at 10 µM ([15]; Homo sapiens, 72 h, read-out: The results of antibiotic drug inhibiting cancer cell lines (cell viability analysis), NIH-OVCAR-3): 106% | viability at 10 µM ([16]; A549, repeated experiment, read-out: The results of antibiotic drug inhibiting cancer cell lines (cell viability analysis), A549): 79.9% | viability at 10 µM ([16]; drug 10 μM, 72 hours, WST-1, OD450 nm, read-out: cell viability (survival rate), A549): 53.7% | viability at 10 µM ([17]; HepG2, repeated experiment, read-out: The results of antibiotic drug inhibiting cancer cell lines (cell viability analysis), HepG2): 94.5% | viability at 10 µM ([17]; drug 10 μM, 72 hours, WST-1, OD450 nm, read-out: cell viability (survival rate), HepG2): 90.9% | viability at 10 µM ([18]; Homo sapiens, MDA-MB-231, 72 h, read-out: The results of antibiotic drug inhibiting cancer cell lines (cell viability analysis), MDA-MB231): 83.5% | viability at 10 µM ([19]; read-out: The results of antibiotic drug inhibiting cancer cell lines (cell viability analysis), LoVo, repeated experiment): 95.5% | viability at 10 µM ([19]; read-out: cell viability (survival rate), LoVo, drug 10 μM, 72 hours, WST-1, OD450 nm): 77.4% | viability at 10 µM [20]: 90.4% | viability at 10 µM ([21]; Homo sapiens, 786-0, 72 h, read-out: The results of antibiotic drug inhibiting cancer cell lines (cell viability analysis), 786-O): 96.7% | viability at 10 µM ([22]; Homo sapiens, 72 h, read-out: The results of antibiotic drug inhibiting cancer cell lines (cell viability analysis), C-33A): 109% | viability at 10 µM ([23]; Homo sapiens, TOV21G, 72 h, read-out: The results of antibiotic drug inhibiting cancer cell lines (cell viability analysis), TOV-21G): 97% | viability at 10 µM ([24]; Homo sapiens, T-24, 72 h, read-out: The results of antibiotic drug inhibiting cancer cell lines (cell viability analysis), T24): 90.5%

CN[C@H](CC(C)C)C(=O)N[C@H]1C(=O)N[C@@H](CC(N)=O)C(=O)N[C@H]2C(=O)N[C@H]3C(=O)N[C@H](C(=O)N[C@H](C(=O)O)c4cc(O)cc(O)c4-c4cc3ccc4O)[C@H](O)c3ccc(c(Cl)c3)Oc3cc2cc(c3O[C@@H]2O[C@H](CO)[C@@H](O)[C@H](O)[C@H]2O[C@H]2C[C@](C)(N)[C@H](O)[C@H](C)O2)Oc2ccc(cc2Cl)[C@H]1O.Cl [Vancomycin HCl (Vancocin)]
The results of antibiotic drug inhibiting cancer cell lines (cell viability analysis), MKN-45 ([1]; MKN-45, repeated experiment): 116.9 | viability [2]: 94.8% | The results of antibiotic drug inhibiting cancer cell lines (cell viability analysis), MCF-7 ([5]; MCF-7, repeated experiment): 91.83 | The results of antibiotic drug inhibiting cancer cell lines (cell viability analysis), Hep3B [6]: 94.6 | The results of antibiotic drug inhibiting cancer cell lines (cell viability analysis), SAS [7]: 102 | The results of antibiotic drug inhibiting cancer cell lines (cell viability analysis), AGS ([8]; AGS, repeated experiment): 108.9 | The results of antibiotic drug inhibiting cancer cell lines (cell viability analysis), PC-3 ([10]; PC-3, repeated experiment): 104.2 | The results of antibiotic drug inhibiting cancer cell lines (cell viability analysis), BCC [12]: 96.78 | The results of antibiotic drug inhibiting cancer cell lines (cell viability analysis), TSGH-8301 ([13]; TSGH-8301, repeated experiment): 118 | The results of antibiotic drug inhibiting cancer cell lines (cell viability analysis), NIH-OVCAR-3 [15]: 105.6 | The results of antibiotic drug inhibiting cancer cell lines (cell viability analysis), U2OS [25]: 62.87 | The results of antibiotic drug inhibiting cancer cell lines (cell viability analysis), HepG2 ([17]; HepG2, repeated experiment): 92.06 | The results of antibiotic drug inhibiting cancer cell lines (cell viability analysis), MDA-MB231 [18]: 90.26 | The results of antibiotic drug inhibiting cancer cell lines (cell viability analysis), LoVo ([19]; repeated experiment): 101 | The results of antibiotic drug inhibiting cancer cell lines (cell viability analysis), 786-O [21]: 102.3 | The results of antibiotic drug inhibiting cancer cell lines (cell viability analysis), C-33A [22]: 100.6 | The results of antibiotic drug inhibiting cancer cell lines (cell viability analysis), TOV-21G [23]: 97.4 | The results of antibiotic drug inhibiting cancer cell lines (cell viability analysis), T24 [24]: 95.32
